# Experimental data from publication PMC5355811 (Nature Communications, 2017).
# Read-outs that look alike come from different tables or passages of the source.
# Key:
# Format in all cases: cell-based
# [1] = system: Ba/F3 cells expressing EGFR-L858R; experiment: CellTiter-Glo cell viability assay, Ba/F3 EGFR-L858R; settings: Mus musculus, BaF3, 72 h
# Experimental: (§1) Three-day cell viability assays were carried out by plating 2,000, 1,500 and 2,000 cells per well of Ba/F3, PC9 or MGH121, respectively, into black transparent-bottom 96-well plates. On the same day for Ba/F3 cells and the following day for PC9 and MGH121 cells, the cells were treated with each TKI across a 10-dose range from 0.3 nmol l^−1 to 10 μmol l^−1. After 72 h of drug treatment, cell viability was measured using the CellTiter-Glo assay (Promega).
# [2] = system: Ba/F3 cells expressing EGFR-del19; experiment: CellTiter-Glo cell viability assay, Ba/F3 EGFR-del19; settings: Mus musculus, BaF3, 72 h
# Experimental: as §1
# [3] = system: Ba/F3 cells expressing EGFR-C797S/T790M/L858R; experiment: CellTiter-Glo cell viability assay, Ba/F3 EGFR-C797S/T790M/L858R; settings: Mus musculus, BaF3, 72 h
# Experimental: as §1
# [4] = system: Ba/F3 cells expressing EGFR-T790M/L858R; experiment: CellTiter-Glo cell viability assay, Ba/F3 EGFR-T790M/L858R; settings: Mus musculus, BaF3, 72 h
# Experimental: as §1
# [5] = system: Ba/F3 cells of EGFR-T790M/del19; experiment: Drug sensitivity screening at 100 nM, Ba/F3 EGFR-T790M/del19; settings: 72 h, DMSO = 100; for Relative cell viability (% of DMSO control): 100 nM; for viability at 0.1 µM: Mus musculus, BaF3, 72 h, 100 nM inhibitor, mean of three independent experiments (Fig. 1a data), read-out: Relative cell viability (ratio to DMSO control), del19/T790M
# Experimental: (§2) After the incubation, cell viability was measured using CellTiter-Glo assay. The relative cell viability was calculated as a ratio of each value to that of the DMSO control.
# [6] = system: Ba/F3 cells of EGFR-C797S/T790M/del19; experiment: Drug sensitivity screening at 100 nM, Ba/F3 EGFR-C797S/T790M/del19; settings: Mus musculus, BaF3, 72 h, 100 nM inhibitor, 72 h, DMSO = 100; mean of three independent experiments (Fig. 1a data)
# Experimental: as §2
# [7] = system: Ba/F3 cells expressing EGFR-C797S/T790M/del19; experiment: CellTiter-Glo cell viability assay, Ba/F3 EGFR-C797S/T790M/del19; settings: Mus musculus, BaF3, 72 h, 72 h
# Experimental: as §1
# [8] = system: Ba/F3 cells expressing EGFR-T790M/del19; experiment: CellTiter-Glo cell viability assay, Ba/F3 EGFR-T790M/del19; settings: Mus musculus, BaF3, 72 h
# Experimental: as §1
# [9] = system: Ba/F3 cells of EGFR-del19; experiment: Drug sensitivity screening at 100 nM, Ba/F3 EGFR-del19; settings: 72 h, DMSO = 100; for Relative cell viability (% of DMSO control) in del19 Ba/F3 cells: 100 nM; for viability at 0.1 µM: Mus musculus, BaF3, 72 h, 100 nM inhibitor, mean of three independent experiments (Fig. 1a data), read-out: Relative cell viability (ratio to DMSO control), del19
# Experimental: as §2
# [10] = Supplementary Fig. 8e, read-out: IC50, Ba/F3 L858R
# [11] = Fig. 3c, read-out: IC50, Ba/F3 Del19
# [12] = Supplementary Fig. 8e, read-out: IC50, Ba/F3 T790M/L858R
compound,measurement,setting,value
COc1cc(N2CCC(N3CCN(C)CC3)CC2)ccc1Nc1ncnc(Nc2ccccc2S(=O)(=O)C(C)C)n1 [ASP3026],IC50,[1]; [10],948 nM
same,IC50,[2]; [11],450 nM
same,IC50,[3]; Supplementary Fig. 8e,2150 nM
same,IC50,[4]; [12],1690 nM
same,Relative cell viability (% of DMSO control),[5]; experiment 1,93.2109
same,Relative cell viability (% of DMSO control),[5]; experiment 2,112.991
same,Relative cell viability (% of DMSO control),[5]; experiment 3,110.516
same,viability at 0.1 µM,[5],106%
same,viability at 0.1 µM,[6],126%
same,IC50,"[7]; Fig. 3b,c",1510 nM
same,IC50,"[8]; Fig. 3c, read-out: IC50, Ba/F3 T790M/del19",2160 nM
same,Relative cell viability (% of DMSO control) in del19 Ba/F3 cells,[9]; experiment 1,92.7195
same,Relative cell viability (% of DMSO control) in del19 Ba/F3 cells,[9]; experiment 2,100.941
same,Relative cell viability (% of DMSO control) in del19 Ba/F3 cells,[9]; experiment 3,101.38
same,viability at 0.1 µM,[9],98.3%
"CO[C@H]1C[C@@H]2CC[C@@H](C)[C@@](O)(O2)C(=O)C(=O)N2CCCC[C@H]2C(=O)O[C@H]([C@H](C)C[C@@H]2CC[C@@H](OCCO)[C@H](OC)C2)CC(=O)[C@H](C)/C=C(\C)[C@@H](O)[C@@H](OC)C(=O)[C@H](C)C[C@H](C)/C=C/C=C/C=C/1C [Everolimus, everolimus]",Relative cell viability (% of DMSO control),[5]; experiment 1,31.3636
same,Relative cell viability (% of DMSO control),[5]; experiment 2,39.0956
same,Relative cell viability (% of DMSO control),[5]; experiment 3,30.3952
same,viability at 0.1 µM,[5],33.6%
same,viability at 0.1 µM,[6],28%
same,Relative cell viability (% of DMSO control) in del19 Ba/F3 cells,[9]; experiment 1,25.026
same,Relative cell viability (% of DMSO control) in del19 Ba/F3 cells,[9]; experiment 2,29.0998
same,Relative cell viability (% of DMSO control) in del19 Ba/F3 cells,[9]; experiment 3,35.5918
same,viability at 0.1 µM,[9],29.9%
"CCCS(=O)(=O)Nc1ccc(F)c(C(=O)c2c[nH]c3ncc(-c4ccc(Cl)cc4)cc23)c1F [Vemurafenib, vemurafenib]",Relative cell viability (% of DMSO control),[5]; experiment 1,92.0888
same,Relative cell viability (% of DMSO control),[5]; experiment 2,107.966
same,Relative cell viability (% of DMSO control),[5]; experiment 3,104.772
same,viability at 0.1 µM,[5],102%
same,viability at 0.1 µM,[6],96.8%
same,Relative cell viability (% of DMSO control) in del19 Ba/F3 cells,[9]; experiment 1,102.039
same,Relative cell viability (% of DMSO control) in del19 Ba/F3 cells,[9]; experiment 2,116.573
same,Relative cell viability (% of DMSO control) in del19 Ba/F3 cells,[9]; experiment 3,106.065
same,viability at 0.1 µM,[9],108%
"CCc1cc2c(cc1N1CCC(N3CCOCC3)CC1)C(C)(C)c1[nH]c3cc(C#N)ccc3c1C2=O [Alectinib, alectinib]",Relative cell viability (% of DMSO control),[5]; experiment 1,98.2015
same,Relative cell viability (% of DMSO control),[5]; experiment 2,127.038
same,Relative cell viability (% of DMSO control),[5]; experiment 3,121.189
same,viability at 0.1 µM,[5],115%
same,viability at 0.1 µM,[6],146%
same,Relative cell viability (% of DMSO control) in del19 Ba/F3 cells,[9]; experiment 1,98.9355
same,Relative cell viability (% of DMSO control) in del19 Ba/F3 cells,[9]; experiment 2,105.786
same,Relative cell viability (% of DMSO control) in del19 Ba/F3 cells,[9]; experiment 3,113.209
same,viability at 0.1 µM,[9],106%
"Cc1cc(Nc2ncc(Cl)c(Nc3ccccc3S(=O)(=O)C(C)C)n2)c(OC(C)C)cc1C1CCNCC1 [Ceritinib, ceritinib]",IC50,[1]; [10],1160 nM
same,IC50,[2]; [11],524 nM
same,IC50,[4]; [12],685 nM
same,viability at 0.1 µM,[6],135%
same,IC50,"[7]; Fig. 3b,c",780 nM
same,viability at 0.1 µM,[9],96.5%
Cc1[nH]c(/C=C2\C(=O)Nc3ccc(S(=O)(=O)Cc4c(Cl)cccc4Cl)cc32)c(C)c1C(=O)N1CCC[C@@H]1CN1CCCC1 [PHA665752],viability at 0.1 µM,[5],110%
same,viability at 0.1 µM,[6],136%
same,Relative cell viability (% of DMSO control) in del19 Ba/F3 cells,[9]; experiment 1,109.731
same,Relative cell viability (% of DMSO control) in del19 Ba/F3 cells,[9]; experiment 2,119.895
same,Relative cell viability (% of DMSO control) in del19 Ba/F3 cells,[9]; experiment 3,113.452
same,viability at 0.1 µM,[9],114%
"COc1cc2c(Nc3ccc(Br)cc3F)ncnc2cc1OCC1CCN(C)CC1 [Vandetanib, vandetanib]",Relative cell viability (% of DMSO control),[5]; experiment 1,95.2444
same,Relative cell viability (% of DMSO control),[5]; experiment 2,114.653
same,Relative cell viability (% of DMSO control),[5]; experiment 3,98.1331
same,viability at 0.1 µM,[5],103%
same,viability at 0.1 µM,[6],130%
same,Relative cell viability (% of DMSO control) in del19 Ba/F3 cells,[9]; experiment 1,1.287
same,Relative cell viability (% of DMSO control) in del19 Ba/F3 cells,[9]; experiment 2,1.585
same,Relative cell viability (% of DMSO control) in del19 Ba/F3 cells,[9]; experiment 3,1.984
same,viability at 0.1 µM,[9],1.62%
COc1cc(N2CCC(N3CCN(C)CC3)CC2)ccc1Nc1ncc(Cl)c(Nc2ccccc2S(=O)(=O)C(C)C)n1 [TAE684],viability at 0.1 µM,[5],98.1%
same,viability at 0.1 µM,[6],110%
same,viability at 0.1 µM,[9],105%
"COc1cc2c(Oc3ccc(NC(=O)C4(C(=O)Nc5ccc(F)cc5)CC4)cc3F)ccnc2cc1OCCCN1CCOCC1 [Foretinib, foretinib]",Relative cell viability (% of DMSO control),[5]; experiment 1,105.61
same,Relative cell viability (% of DMSO control),[5]; experiment 2,122.653
same,Relative cell viability (% of DMSO control),[5]; experiment 3,104.986
same,viability at 0.1 µM,[5],111%
same,viability at 0.1 µM,[6],135%
same,Relative cell viability (% of DMSO control) in del19 Ba/F3 cells,[9]; experiment 1,89.6065
same,Relative cell viability (% of DMSO control) in del19 Ba/F3 cells,[9]; experiment 2,99.5833
same,Relative cell viability (% of DMSO control) in del19 Ba/F3 cells,[9]; experiment 3,99.8956
same,viability at 0.1 µM,[9],96.4%
COC(=O)c1ccc2c(c1)NC(=O)/C2=C(\Nc1ccc(N(C)C(=O)CN2CCN(C)CC2)cc1)c1ccccc1 [BIBF1120],viability at 0.1 µM,[5],91.1%
same,viability at 0.1 µM,[6],108%
same,Relative cell viability (% of DMSO control) in del19 Ba/F3 cells,[9]; experiment 1,91.4241
same,Relative cell viability (% of DMSO control) in del19 Ba/F3 cells,[9]; experiment 2,97.5116
same,Relative cell viability (% of DMSO control) in del19 Ba/F3 cells,[9]; experiment 3,102.157
same,viability at 0.1 µM,[9],97%
Cc1cc(C(=O)Nc2nc3cccc(Cl)c3n2[C@@H]2CCCCN(C(=O)/C=C/CN(C)C)C2)ccn1 [EGF-816],IC50,"[1]; Table 1b, read-out: IC50, Ba/F3-EGFR-L858R",7.7 nM
same,IC50,"[2]; Table 1a, read-out: IC50, Ba/F3-EGFR-Del19",2.9 nM
same,IC50,"[3]; Table 1b, read-out: IC50, Ba/F3-EGFR-C797S/T790M/L858R",2280 nM
same,IC50,"[4]; Table 1b, read-out: IC50, Ba/F3-EGFR-T790M/L858R",15.5 nM
same,IC50,"[7]; Table 1a, read-out: IC50, Ba/F3-EGFR-C797S/T790M/del19",1410 nM
same,IC50,"[8]; Table 1a, read-out: IC50, Ba/F3-EGFR-T790M/del19",18.5 nM
"C[C@H]1Oc2cc(cnc2N)-c2c(nn(C)c2C#N)CN(C)C(=O)c2ccc(F)cc21 [Lorlatinib, lorlatinib]",Relative cell viability (% of DMSO control),[5]; experiment 1,93.1744
same,Relative cell viability (% of DMSO control),[5]; experiment 2,112.187
same,Relative cell viability (% of DMSO control),[5]; experiment 3,104.505
same,viability at 0.1 µM,[5],103%
same,viability at 0.1 µM,[6],126%
same,Relative cell viability (% of DMSO control) in del19 Ba/F3 cells,[9]; experiment 1,99.5381
same,Relative cell viability (% of DMSO control) in del19 Ba/F3 cells,[9]; experiment 2,109.489
same,Relative cell viability (% of DMSO control) in del19 Ba/F3 cells,[9]; experiment 3,108.837
same,viability at 0.1 µM,[9],106%
CS(=O)(=O)N1CCN(Cc2cc3nc(-c4cccc5[nH]ncc45)nc(N4CCOCC4)c3s2)CC1 [GDC0941],Relative cell viability (% of DMSO control),[5]; experiment 1,45.3105
same,Relative cell viability (% of DMSO control),[5]; experiment 2,67.5344
same,Relative cell viability (% of DMSO control),[5]; experiment 3,51.7458
same,viability at 0.1 µM,[5],54.9%
same,viability at 0.1 µM,[6],66.1%
same,Relative cell viability (% of DMSO control) in del19 Ba/F3 cells,[9]; experiment 1,34.6965
same,Relative cell viability (% of DMSO control) in del19 Ba/F3 cells,[9]; experiment 2,39.6485
same,Relative cell viability (% of DMSO control) in del19 Ba/F3 cells,[9]; experiment 3,45.9129
same,viability at 0.1 µM,[9],40.1%
